The results in this text go back to patent US20260297042A1, “BIARYLAMIDE DERIVATIVES AND THEIR USE AS PKMYT1 INHIBITORS” (CANCER RESEARCH TECHNOLOGY LIMITED, priority 2023, published 2026).

A word on the IC50: it is the midpoint of a concentration-inhibition curve. Lower therefore signals greater potency.

Counter-ions that a name gives are not always drawn.

One test addresses T1, WEE1 (Homo sapiens, UniProt P30291).
T1 construct: purchased Thermo Fisher PR7373A
As to the kind of experiment: Selectivity versus WEE1 assay (ADP-Glo enzymatic assay). It counts as biochemical. The following applies: for IC50: WEE1 15 nM, ADP-Glo, banded values; for PKMYT1 vs. WEE1 selectivity: fold difference in selectivity for PKMYT1 over WEE1, banded. The method in brief: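 Same format as the PKMYT1 assay: WEE1 at 15 nM final with 30 µM ATP, 60 min at 26° C, ADP-Glo luminescence detection, IC50 by dose-response fitting.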
(In general: ADP-Glo turns the ADP formed in a reaction into a luminescent signal.)

The target in another test is T2, Human PKMYT1 (Homo sapiens, UniProt Q99640).
T2 construct: Human PKMYT1 75-362 was cloned as a TEV cleavable 6xHis fusion; 6xHis (TEV cleavable) (cleaved yes); made in house; host or cells: bacterial cells
T2 sequence (Q99640 75-362): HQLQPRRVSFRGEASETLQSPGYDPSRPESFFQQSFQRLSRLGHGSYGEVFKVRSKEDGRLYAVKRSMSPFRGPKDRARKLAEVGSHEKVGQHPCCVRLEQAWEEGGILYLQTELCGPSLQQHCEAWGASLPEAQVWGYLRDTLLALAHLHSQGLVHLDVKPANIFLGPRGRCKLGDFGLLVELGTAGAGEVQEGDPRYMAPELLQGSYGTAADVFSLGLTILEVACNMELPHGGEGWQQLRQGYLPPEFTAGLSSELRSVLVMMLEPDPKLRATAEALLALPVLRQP
The experiment in a line: PKMYT1 biochemical ADP-Glo enzymatic assay. Conditions: PKMYT1 kinase domain 15 nM; ADP-Glo; banded values. An outline of the steps: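 Measures inhibition of PKMYT1 autonomous ATP hydrolysis: bacterially expressed human enzyme (75-362, tag cleaved) at 15 nM with 500 µM ATP for 60 min at 26 °C, then ADP-Glo Max detection. IC50s accepted only when replicates agreed within 3-fold and curve r2 exceeded 0.9.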

T1 sequence (P30291 whole entry): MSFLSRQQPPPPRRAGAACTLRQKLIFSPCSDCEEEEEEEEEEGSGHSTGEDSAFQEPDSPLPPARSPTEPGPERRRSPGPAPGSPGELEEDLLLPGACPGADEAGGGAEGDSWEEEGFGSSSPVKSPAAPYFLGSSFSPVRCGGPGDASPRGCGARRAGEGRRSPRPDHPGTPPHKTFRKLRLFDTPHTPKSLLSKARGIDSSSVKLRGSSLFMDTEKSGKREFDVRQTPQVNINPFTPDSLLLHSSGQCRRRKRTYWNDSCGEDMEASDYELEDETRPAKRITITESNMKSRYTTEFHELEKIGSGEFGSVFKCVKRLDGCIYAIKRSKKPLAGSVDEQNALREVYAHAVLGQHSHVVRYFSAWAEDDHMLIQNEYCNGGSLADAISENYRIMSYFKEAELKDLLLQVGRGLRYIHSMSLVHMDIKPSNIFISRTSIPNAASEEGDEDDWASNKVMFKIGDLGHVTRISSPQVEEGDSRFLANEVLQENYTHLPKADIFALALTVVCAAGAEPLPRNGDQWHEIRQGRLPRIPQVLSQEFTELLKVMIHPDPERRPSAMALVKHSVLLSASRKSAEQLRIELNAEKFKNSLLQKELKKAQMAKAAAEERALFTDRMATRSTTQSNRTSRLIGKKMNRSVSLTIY

In the case of `Cc1ccc(O)c(C)c1NC(=O)c1cnc(Nc2cc(C)n(C(C)C(=O)N3CCCC3)n2)s1` (stereo not drawn) [BAA-508, N-(3-hydroxy-2,6-dimethylphenyl)-2-((5-methyl-1-(1-oxo-1-(pyrrolidin-1-yl)propan-2-yl)-1H-pyrazol-3-yl)amino)thiazole-5-carboxamide], on WEE1, the IC50 is greater than 11000 nM and the “PKMYT1 vs. WEE1 selectivity” value is given as “W (10-<100 fold)”. This compound also showed an IC50 at Human PKMYT1 of 50 to 1000 nM.
`Cc1ccc(O)c(C)c1NC(=O)c1cnc(Nc2cc(C)n(C(C)C(=O)N3CCN(C)CC3)n2)s1` (stereo not drawn) [BAA-511, N-(3-hydroxy-2,6-dimethylphenyl)-2-((5-methyl-1-(1-(4-methylpiperazin-1-yl)-1-oxopropan-2-yl)-1H-pyrazol-3-yl)amino)thiazole-5-carboxamide]: at WEE1, the IC50 was greater than 11000 nM and the “PKMYT1 vs. WEE1 selectivity” value is listed as “W (10-<100 fold)”. This compound registered a 50% inhibitory concentration (IC50) against Human PKMYT1 of 50 to 1000 nM.
The corresponding values for `CC(=O)Nc1ccc(Nc2ncc(C(=O)Nc3c(C)ccc(O)c3C)s2)cc1` [BAA-513, 2-((4-Acetamidophenyl)amino)-N-(3-hydroxy-2,6-dimethylphenyl)thiazole-5-carboxamide] are 1000 to 11000 nM, “X (100-<1000 fold)” and less than 50 nM.
The like results for `Cc1cn(CC(=O)N(C)CC(F)(F)F)nc1Nc1ncc(C(=O)Nc2c(C)ccc(O)c2C)s1` [BAA-514, N-(3-hydroxy-2,6-dimethylphenyl)-2-((4-methyl-1-(2-(methyl(2,2,2-trifluoroethyl)amino)-2-oxoethyl)-1H-pyrazol-3-yl)amino)thiazole-5-carboxamide] were, in that order, 1000 to 11000 nM, “X (100-<1000 fold)” and less than 50 nM.
The corresponding values for `Cc1ccc(O)c(C)c1NC(=O)c1cnc(Nc2ccc3c(c2)NC(=O)CO3)s1` [BAA-515, N-(3-hydroxy-2,6-dimethylphenyl)-2-((3-oxo-3,4-dihydro-2H-benzo[b][1,4]oxazin-6-yl)amino)thiazole-5-carboxamide] are 1000 to 11000 nM, “X (100-<1000 fold)” and less than 50 nM.
Consider `Cc1cc(C)c(NC(=O)c2cnc(Nc3ccn(CC(=O)N4CCCC4)n3)s2)c(C)c1O` [BAA-516, N-(3-hydroxy-2,4,6-trimethylphenyl)-2-((1-(2-oxo-2-(pyrrolidin-1-yl)ethyl)-1H-pyrazol-3-yl)amino)thiazole-5-carboxamide], for which, at WEE1, the IC50 was greater than 11000 nM and the “PKMYT1 vs. WEE1 selectivity” value is “X (100-<1000 fold)”. At Human PKMYT1, this compound displayed a half-maximal inhibitory concentration (IC50) of 50 to 1000 nM.
The like results for `Cc1ccc(O)c(C)c1NC(=O)c1cnc(Nc2cc(C)n(CCC#N)n2)s1` [BAA-518, 2-((1-(2-cyanoethyl)-5-methyl-1H-pyrazol-3-yl)amino)-N-(3-hydroxy-2,6-dimethylphenyl)thiazole-5-carboxamide] were, in that order, 1000 to 11000 nM, “W (10-<100 fold)” and less than 50 nM.
Take `Cc1c(O)ccc(Br)c1NC(=O)c1cnc(Nc2ccn(CC(=O)N3CCCC3)n2)s1` [BAA-519, N-(6-Bromo-3-hydroxy-2-methyl-phenyl)-2-[[1-(2-oxo-2-pyrrolidin-1-yl-ethyl)pyrazol-3-yl]amino]thiazole-5-carboxamide]: the 50% inhibitory concentration (IC50) on WEE1 was greater than 11000 nM; at Human PKMYT1 it was less than 50 nM. Moreover, on WEE1, the “PKMYT1 vs. WEE1 selectivity” value was “X (100-<1000 fold)”.
The like results for `Cc1ccc(O)c(C)c1NC(=O)c1cnc(Nc2cnn(C)c2C)s1` [BAA-520, 2-((1,5-dimethyl-1H-pyrazol-4-yl)amino)-N-(3-hydroxy-2,6-dimethylphenyl)thiazole-5-carboxamide] were, in that order, greater than 11000 nM, 50 to 1000 nM and “X (100-<1000 fold)”.
The like results for `Cc1ccc(O)c(C)c1NC(=O)c1cnc(Nc2cn(C)nc2C)s1` [BAA-521, 2-((1,3-dimethyl-1H-pyrazol-4-yl)amino)-N-(3-hydroxy-2,6-dimethylphenyl)thiazole-5-carboxamide] were, in that order, greater than 11000 nM, 50 to 1000 nM and “X (100-<1000 fold)”.
The corresponding values for `Cc1cn(CC(=O)N(C)CCS(C)(=O)=O)nc1Nc1ncc(C(=O)Nc2c(C)ccc(O)c2C)s1` [BAA-522, N-(3-hydroxy-2,6-dimethylphenyl)-2-((4-methyl-1-(2-(methyl(2-(methylsulfonyl)ethyl)amino)-2-oxoethyl)-1H-pyrazol-3-yl)amino)thiazole-5-carboxamide] are 1000 to 11000 nM, less than 50 nM and “X (100-<1000 fold)”.
On to `Cc1cn(CC(=O)N(C)CCO)nc1Nc1ncc(C(=O)Nc2c(C)ccc(O)c2C)s1` [BAA-524, N-(3-Hydroxy-2.6-dimethylphenyl)-2-((1-(2-((2-hydroxyethyl)(methyl)amino)-2-oxoethyl)-4-methyl-1H-pyrazol-3-yl)amino)thiazole-5-carboxamide], for which, at WEE1, the IC50 is greater than 11000 nM and the “PKMYT1 vs. WEE1 selectivity” value is “Y (1000-5000 fold)”. The IC50 on Human PKMYT1 is less than 50 nM.
The like results for `Cc1ccc(O)c(C)c1NC(=O)c1cnc(Nc2ccccc2C2CC2)s1` [BAA-526, 2-((2-cyclopropylphenyl)amino)-N-(3-hydroxy-2,6-dimethylphenyl)thiazole-5-carboxamide] were, in that order, greater than 11000 nM, “X (100-<1000 fold)” and 50 to 1000 nM.
Take `Cc1ccc(O)c(C)c1NC(=O)c1cnc(Nc2cnn(CC(=O)N3CCCC3)c2)s1` [BAA-527, N-(3-hydroxy-2,6-dimethylphenyl)-2-((1-(2-oxo-2-(pyrrolidin-1-yl)ethyl)-1H-pyrazol-4-yl)amino)thiazole-5-carboxamide]: on WEE1, the IC50 was greater than 11000 nM and the “PKMYT1 vs. WEE1 selectivity” value is reported as “W (10-<100 fold)”. The compound further showed a half-inhibitory concentration (IC50) on Human PKMYT1 of 50 to 1000 nM.
The like results for `COc1ccccc1Nc1ncc(C(=O)Nc2c(C)ccc(O)c2C)s1` [BAA-528, N-(3-hydroxy-2,6-dimethylphenyl)-2-((2-methoxyphenyl)amino)thiazole-5-carboxamide. TFA salt] were, in that order, greater than 11000 nM, “X (100-<1000 fold)” and 50 to 1000 nM.
The corresponding values for `Cc1ccc(O)c(C)c1NC(=O)c1cnc(Nc2cccc3c2OCCO3)s1` [BAA-529, 2-((2,3-dihydrobenzo[b][1,4]dioxin-5-yl)amino)-N-(3-hydroxy-2,6-dimethylphenyl)thiazole-5-carboxamide. TFA salt] are greater than 11000 nM, “X (100-<1000 fold)” and 50 to 1000 nM.
On to `Cc1ccc(O)c(C)c1NC(=O)c1cnc(Nc2cccc3c2OCC3)s1` [BAA-530, 2-((2,3-dihydrobenzofuran-7-yl)amino)-N-(3-hydroxy-2,6-dimethylphenyl)thiazole-5-carboxamide. TFA salt], for which, on WEE1, the IC50 was greater than 11000 nM and the “PKMYT1 vs. WEE1 selectivity” value was “X (100-<1000 fold)”. The compound also came in with an IC50 against Human PKMYT1 of 50 to 1000 nM.
The corresponding values for `Cc1ccc(O)c(C)c1NC(=O)c1cnc(Nc2cccc3ccoc23)s1` [BAA-531, 2-(benzofuran-7-ylamino)-N-(3-hydroxy-2,6-dimethylphenyl)thiazole-5-carboxamide] are greater than 11000 nM, “Y (1000-5000 fold)” and 50 to 1000 nM.
The like results for `CCN(CCC#N)C(=O)Cn1cc(C)c(Nc2ncc(C(=O)Nc3c(C)ccc(O)c3C)s2)n1` [BAA-532, 2-((1-(2-((2-cyanoethyl)(ethyl)amino)-2-oxoethyl)-4-methyl-1H-pyrazol-3-yl)amino)-N-(3-hydroxy-2,6-dimethylphenyl)thiazole-5-carboxamide] were, in that order, 1000 to 11000 nM, “X (100-<1000 fold)” and less than 50 nM.
The like results for `CCC(C(=O)N1CCN(C)CC1)n1ccc(Nc2ncc(C(=O)Nc3c(C)ccc(O)c3C)s2)n1` (stereo not drawn) [BAA-533, N-(3-hydroxy-2,6-dimethylphenyl)-2-((1-(1-(4-methylpiperazin-1-yl)-1-oxobutan-2-yl)-1H-pyrazol-3-yl)amino)thiazole-5-carboxamide] were, in that order, greater than 11000 nM, “Y (1000-5000 fold)” and less than 50 nM.
For `Cc1ccc(O)c(C)c1NC(=O)c1cnc(Nc2ccn(C(C)C(=O)N3CCN(C)CC3)n2)s1` (stereo not drawn) [BAA-534, N-(3-hydroxy-2,6-dimethylphenyl)-2-((1-(1-(4-methylpiperazin-1-yl)-1-oxopropan-2-yl)-1H-pyrazol-3-yl)amino)thiazole-5-carboxamide], the figures for the half-inhibitory concentration (IC50) against WEE1 and on Human PKMYT1 were greater than 11000 nM and less than 50 nM, respectively. The “PKMYT1 vs. WEE1 selectivity” value at WEE1 was “Y (1000-5000 fold)”.
The like results for `CCN(CCO)C(=O)Cn1cc(C)c(Nc2ncc(C(=O)Nc3c(C)ccc(O)c3C)s2)n1` [BAA-535, 2-((1-(2-(Ethyl(2-hydroxyethyl)amino)-2-oxoethyl)-4-methyl-1H-pyrazol-3-yl)amino)-N-(3-hydroxy-2,6-dimethylphenyl)thiazole-5-carboxamide] were, in that order, 1000 to 11000 nM, less than 50 nM and “X (100-<1000 fold)”.
